Experimental data as given in patent US6136831A, “Pyrazole derivatives and COX inhibitors containing them” (Grelan Pharmaceutical Co., Ltd., priority 1997, dated 2000).

What was measured:
COX-1 [1] = molecular target: T1, COX-1 (Ovis aries, UniProt P05979); experiment: Inhibitory Activity on COX-1 (Assay Example 5); format: biochemical; conditions: Table 4; read-out: COX Inhibiting Activity IC50, COX-1
T1 construct: purchased Cayman Chemical Co
T1 sequence (P05979 25-600): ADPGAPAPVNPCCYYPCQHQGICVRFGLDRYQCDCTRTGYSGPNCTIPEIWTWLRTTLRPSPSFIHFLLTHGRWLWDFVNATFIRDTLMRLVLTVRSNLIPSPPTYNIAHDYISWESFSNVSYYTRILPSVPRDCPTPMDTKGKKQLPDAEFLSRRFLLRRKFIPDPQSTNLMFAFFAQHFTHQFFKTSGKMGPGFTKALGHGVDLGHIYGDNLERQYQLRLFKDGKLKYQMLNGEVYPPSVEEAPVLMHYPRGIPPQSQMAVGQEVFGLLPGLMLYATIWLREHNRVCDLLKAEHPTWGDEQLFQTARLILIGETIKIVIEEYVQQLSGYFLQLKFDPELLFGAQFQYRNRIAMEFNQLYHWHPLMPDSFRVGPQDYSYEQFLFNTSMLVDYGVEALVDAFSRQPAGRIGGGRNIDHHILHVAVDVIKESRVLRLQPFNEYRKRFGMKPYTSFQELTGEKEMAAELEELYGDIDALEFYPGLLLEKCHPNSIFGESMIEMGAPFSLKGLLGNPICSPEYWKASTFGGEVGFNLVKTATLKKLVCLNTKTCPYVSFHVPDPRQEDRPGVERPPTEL

COX-2 [2] = molecular target: T2, COX-2 (Ovis aries, UniProt P79208); experiment: Inhibitory Activity on COX-2 (Assay Example 5); format: biochemical; conditions: Table 4; for IC50: read-out: COX Inhibiting Activity IC50, COX-2
T2 construct: purchased Cayman Chemical Co
T2 sequence (P79208 17-603): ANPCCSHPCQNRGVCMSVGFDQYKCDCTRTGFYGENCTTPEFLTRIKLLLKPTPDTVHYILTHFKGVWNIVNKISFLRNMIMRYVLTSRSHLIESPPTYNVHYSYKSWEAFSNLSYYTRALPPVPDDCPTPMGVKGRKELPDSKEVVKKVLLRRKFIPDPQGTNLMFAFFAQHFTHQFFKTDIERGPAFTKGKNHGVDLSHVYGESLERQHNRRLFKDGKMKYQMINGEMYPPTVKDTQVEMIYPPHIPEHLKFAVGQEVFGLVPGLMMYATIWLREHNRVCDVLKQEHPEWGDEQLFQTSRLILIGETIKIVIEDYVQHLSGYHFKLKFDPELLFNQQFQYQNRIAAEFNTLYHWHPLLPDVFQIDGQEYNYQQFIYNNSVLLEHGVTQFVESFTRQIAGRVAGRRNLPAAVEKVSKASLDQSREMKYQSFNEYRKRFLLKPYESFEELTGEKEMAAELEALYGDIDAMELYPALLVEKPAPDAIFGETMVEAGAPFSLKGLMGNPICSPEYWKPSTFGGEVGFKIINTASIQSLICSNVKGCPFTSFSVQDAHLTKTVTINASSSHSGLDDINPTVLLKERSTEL

COX-1 [3] = molecular target: T1, COX-1; experiment: Inhibitory Activity on COX-1 (Assay Example 1); format: biochemical; conditions: Table 1; read-out: COX Inhibiting Activity IC50, COX-1
COX-2 [4] = molecular target: T2, COX-2; experiment: Inhibitory Activity on COX-2 (Assay Example 1); format: biochemical; conditions: Table 1; for IC50: read-out: COX Inhibiting Activity IC50, COX-2
[5] = tested on: rat adjuvant-induced arthritis; experiment: Inhibitory Action on Adjuvant Arthritis (1) (Assay Example 2); format: in vivo, male Fisher rats; conditions: oral 5 mg/kg
Description: Dry Mycobacterium butyricum killed organisms (Difco) were suspended in liquid paraffin to make the concentration 1% and the resulting suspension used as an adjuvant. The adjuvant (50 μl) was subplantarly injected to the right hind paw of male Fisher rats (5 to 6 animals per group) to raise arthritis. Each test compound was suspended in a 0.5% aqueous sodium carboxymethylcellulose (CMC-Na) solution and orally administered to the rats at a dose of 5 mg/kg on days 0, 3, 7, 10, 14, 17 and 20 (7 times in total) after the arthritis induction. On the 21st disease day the rats were measured for their body weight and the edema of their right and left hind paws. Simultaneously, systemic inflammatory states were scored. In addition, each of their spleen and thymus was taken out by excision to measure their wet weight and their relative weight per 100 g body weight was calculated.

[6] = tested on: adjuvant arthritis in rats; experiment: Inhibitory Action on Adjuvant Arthritis (2) (Assay Example 6); format: in vivo, male F344/Du (Fisher) rats; conditions: oral 1 mg/5 ml/kg daily, 17 days; for % Inhibition against Reduction of Gain in Body Weight / Edema Inhibition (%) Left Hind Paw (Non-inflamed Paw) / Edema Inhibition (%) Right Hind Paw (Inflamed Paw): measured next day; for % Inhibition against Change in Relative Weight, Spleen / % Inhibition against Change in Relative Weight, Thymus: relative weight per 100 g body weight; for Inflammation Score Inhibition (%): scored next day
Description: A 1% dry Mycobacterium tuberculosis H37 RA killed organism suspension in liquid paraffin was employed as an adjuvant. The adjuvant suspension (50 μl) was subplantarly administered to the right hind paw of male F344/Du (Fisher) rats (5 to 6 animals per group) to raise arthritis. […] The next day after the final administration, the rats were measured for their body weight and the edema of their right and left hind paws. Simultaneously, systemic inflammatory states were scored. In addition, each of their spleen and thymus was taken out by excision to measure their wet weight and their relative weight per 100 g body weight was determined.

[7] = 7 times, relative weight per 100 g body weight, day 21
[8] = days 0, 3, 7, 10, 14, 17, 20, measured day 21

Compound	IC50 (COX-1 [1]) [nM]	COX-1/COX-2 (ratio of IC50 values) (COX-2 [2])	IC50 (COX-2 [2]) [nM]	also measured
CS(=O)(=O)c1ccc(-n2nc(C(F)(F)F)cc2-c2nc3cccc(F)c3s2)cc1 [Example 17, 7-fluoro-2-[1-(4-methylsulfonylphenyl)-3-trifluoromethyl-1H-pyrazol-5-yl]benzothiazole]	> 100000	> 625	160	
COc1ccc2nc(-c3cc(C(F)(F)F)nn3-c3ccc(S(N)(=O)=O)cc3)sc2c1 [Example 11, 4-[5-(6-Methoxybenzothiazol-2-yl)-3-trifluoromethyl-1H-pyrazol-1-yl]benzenesulfonamide]				IC50 (COX-1 [3]): > 100000 nM; COX-1/COX-2 (ratio of IC50 values) (COX-2 [4]): > 208; IC50 (COX-2 [4]): 480 nM
Cc1ccc2nc(-c3cc(C(F)(F)C(F)(F)F)nn3-c3ccc(S(C)(=O)=O)cc3)sc2c1 [Example 32, 6-Methyl-2-[1-(4-methylsulfonylphenyl)-3-pentafluoroethyl-1H-pyrazol-5-yl]benzothiazole]	> 100000	> 270	370	
CS(=O)(=O)c1ccc(-n2nc(C(F)(F)F)cc2-c2nc3ccccc3s2)cc1 [Example 8, 2-[1-(4-Methylsulfonylphenyl)-3-trifluoromethyl-1H-pyrazol-5-yl]benzothiazole]				IC50 (COX-1 [3]): > 100000 nM; COX-1/COX-2 (ratio of IC50 values) (COX-2 [4]): > 294; IC50 (COX-2 [4]): 340 nM
CS(=O)(=O)c1ccc(-n2nc(C(F)(F)F)cc2-c2nc3cc(F)ccc3s2)cc1 [Example 4, 5-Fluoro-2-[1-(4-methylsulfonylphenyl)-3-trifluoromethyl-1H-pyrazol-5-yl]benzothiazole]				% Inhibition against Change in Relative Weight, Spleen [5, 7]: 2.9%; % Inhibition against Change in Relative Weight, Thymus [5, 7]: 148.9%; % Inhibition against Reduction of Gain in Body Weight [5, 8]: 78.7%; Edema Inhibition (%) Left Hind Paw (Non-inflamed Paw) [5, 8]: 91%; Edema Inhibition (%) Right Hind Paw (Inflamed Paw) [5, 8]: 83%; Inflammation Score Inhibition (%) ([5]; days 0, 3, 7, 10, 14, 17, 20, scored day 21): 100%
NS(=O)(=O)c1ccc(-n2nc(C(F)F)cc2-c2nc3ccc(F)cc3s2)cc1 [Example 23, 4-[5-(6-Fluorobenzothiazol-2-yl)-3-difluoromethyl-1H-pyrazol-1-yl]benzenesulfonamide]	> 100000	> 909	110	
COc1ccc2nc(-c3cc(C(F)F)nn3-c3ccc(S(N)(=O)=O)cc3)sc2c1 [Example 25, 4-[3-Difluoromethyl-5-(6-methoxybenzothiazol-2-yl)-1H-pyrazol-5-yl]benzenesulfonamide]	> 100000	> 250	400	
NS(=O)(=O)c1ccc(-n2nc(C(F)F)cc2-c2nc3cccc(F)c3s2)cc1 [Example 29, 4-[5-(7-Fluorobenzothiazol-2-yl)-3-difluoromethyl-1H-pyrazol-1-yl]benzenesulfonamide]	> 100000	> 8333	12	% Inhibition against Reduction of Gain in Body Weight [6]: 73%; Edema Inhibition (%) Left Hind Paw (Non-inflamed Paw) [6]: 124%; Edema Inhibition (%) Right Hind Paw (Inflamed Paw) [6]: 82%; % Inhibition against Change in Relative Weight, Spleen [6]: 25%; % Inhibition against Change in Relative Weight, Thymus [6]: 80%; Inflammation Score Inhibition (%) [6]: 86%
NS(=O)(=O)c1ccc(-n2nc(C(F)(F)F)cc2-c2nc3cccc(F)c3s2)cc1 [Example 18, 4-[5-(7-Fluorobenzothiazol-2-yl)-3-trifluoromethyl-1H-pyrazol-1-yl]benzenesulfonamide]	> 100000	> 625	160	% Inhibition against Reduction of Gain in Body Weight [6]: 75%; Edema Inhibition (%) Left Hind Paw (Non-inflamed Paw) [6]: 116%; Edema Inhibition (%) Right Hind Paw (Inflamed Paw) [6]: 84%; % Inhibition against Change in Relative Weight, Spleen [6]: 48%; % Inhibition against Change in Relative Weight, Thymus [6]: 48%; Inflammation Score Inhibition (%) [6]: 91%
Cc1cccc2nc(-c3cc(C(F)F)nn3-c3ccc(S(N)(=O)=O)cc3)sc12 [Example 31, 4-[3-Difluoromethyl-5-(7-methylbenzothiazol-2-yl)-1H-pyrazol-1-yl]benzenesulfonamide]	> 100000	> 417	240	
NS(=O)(=O)c1ccc(-n2nc(C(F)(F)F)cc2-c2nc3ccccc3s2)cc1 [Example 14, 4-[5-(Benzothiazol-2-yl)-3-trifluoromethyl-1H-pyrazol-1-yl]-benzenesulfonamide]	> 100000	> 1786	56	
Cc1ccc2nc(-c3cc(C(F)(F)C(F)(F)F)nn3-c3ccc(S(N)(=O)=O)cc3)sc2c1 [Example 33, 4-[5-(6-Methylbenzothiazol-2-yl)-3-pentafluoroethyl-1H-pyrazol-5-yl]benzenesulfonamide]	> 100000	> 769	130	
CS(=O)(=O)c1ccc(-n2nc(C(F)(F)F)cc2-c2nc3ccc(Cl)cc3s2)cc1 [Example 10, 6-Chloro-2-[1-(4-methylsulfonylphenyl)-3-trifluoromethyl-1H-pyrazol-5-yl]benzothiazole]				IC50 (COX-1 [3]): > 100000 nM; COX-1/COX-2 (ratio of IC50 values) (COX-2 [4]): > 185; IC50 (COX-2 [4]): 540 nM

Now from value to molecule, other results behind:

IC50 (COX-1 [1]) [nM]	COX-1/COX-2 (ratio of IC50 values) (COX-2 [2])	IC50 (COX-2 [2]) [nM]	Compound	also measured
> 100000	> 417	240	NS(=O)(=O)c1ccc(-n2nc(C(F)F)cc2-c2nc3c(F)cccc3s2)cc1 [Example 41]	
22000	386	57	NS(=O)(=O)c1ccc(-n2nc(C(F)F)cc2-c2nc3ccccc3s2)cc1 [Example 21, 4-[5-(Benzothiazol-2-yl)-3-difluoromethyl-1H-pyrazol-1-yl]-benzenesulfonamide]	
1800	21	86	NS(=O)(=O)c1ccc(-n2nc(C(F)F)cc2-c2nc3ccc(Cl)cc3s2)cc1 [Example 24, 4-[5-(6-Chlorobenzothiazol-2-yl)-3-difluoromethyl-1H-pyrazol-1-yl]benzenesulfonamide]	
> 100000	> 172	580	Cc1ccc2nc(-c3cc(C(F)(F)F)nn3-c3ccc(S(N)(=O)=O)cc3)sc2c1 [Example 16, 4-[5-(6-Methylbenzothiazol-2-yl)-3-trifluoromethyl-1H-pyrazol-5-yl]benzenesulfonamide]	
> 100000	> 2000	50	CS(=O)(=O)c1ccc(-n2nc(C(F)F)cc2-c2nc3ccc(F)cc3s2)cc1 [Example 22, 6-Fluoro-2-[1-(4-methylsulfonylphenyl)-3-difluoromethyl-1H-pyrazol-5-yl]benzothiazole]	
> 100000	> 1190	84	CS(=O)(=O)c1ccc(-n2nc(C(F)F)cc2-c2nc3cccc(F)c3s2)cc1 [Example 28, 7-Fluoro-2-[1-(4-methylsulfonylphenyl)-3-difluoromethyl-1H-pyrazol-5-yl]benzothiazole]	
33000	623	53	Cc1ccc2nc(-c3cc(C(F)F)nn3-c3ccc(S(N)(=O)=O)cc3)sc2c1 [Example 27]	
> 100000	> 769	130	Cc1ccc2nc(-c3cc(C(F)F)nn3-c3ccc(S(C)(=O)=O)cc3)sc2c1 [Example 26, 6-Methyl-2-[1-(4-methylsulfonylphenyl)-3-difluoromethyl-1H-pyrazol-5-yl]benzothiazole]	
